Laboratory results published in US6171809A, “Method and compositions for detecting luciferase biological samples” (priority 1998, dated 2001).
Where no end group is shown, it is not given here.

How the values were obtained:
[1] = biological target: T1, human beta-2 adrenoceptor (Homo sapiens, UniProt P07550); experiment: Compound screening, renilla luciferase readout, CRE/firefly/V2 and CRE/ren/beta2 cells, beta2-adrenoceptor, Example 3; assay type: cell-based
T1 construct: expressed in transfected cells; host or cells: CHO (Chinese hamster ovary) cells stably carrying a CRE-renilla luciferase reporter
Protocol: (§1) Stable mammalian cell lines transfected with c-AMP responsive reporter genes containing either the firefly or renilla luciferase reporter proteins (CRE-firefly and CRE-ren) were generated.
(§2) These receptors are members of the super family of G-protein coupled receptors which interact with the stimulatory G-protein alpha unit.
Firefly luciferase and/or renilla luciferase producing CHO (Chinese hamster ovary) cells are cultured in tissue culture flasks and grown to 90% confluency. Twenty-four hours before the assay, the cells are quiesced in serum-free medium containing 1 mg/ml BSA (bovine serum albumin). Immediately prior to the assay, cells are removed with HBSS/EDTA (Hanks balanced salt solution containing EDTA), centrifuged and resuspended in 10 ml phenol red-free and serum-free medium supplemented with 1 mg/ml BSA. Next, the cells are plated into a 96 well microtiter plate at 90 μl/well and returned to the incubator. After 1 hour, 10 μl of the test compound, made up in either water or phenol red-free medium, is added. The microplates then are further incubated for 4 hours. Finally, the firefly luciferase detection reagent is made up and 100 μl of this detection solution is added to each well. After 10 minutes, the microplate is counted for firefly luciferase activity. […] The plate is left for 15 minutes in the dark and then counted for renilla luciferase activity. […]

adenylcyclase [2] = experiment: Forskolin dose response, renilla luciferase reporter (CRE-ren CHO cells mixed with CRE-firefly cells), Example 1; assay type: cell-based, Chinese hamster ovary
Protocol: A kit for the sequential detection of firefly luciferase and renilla luciferase was prepared which consisted of a firefly luciferase assay reagent and a renilla luciferase assay reagent. The renilla luciferase reagent consisted of 5 μM of coelenterazine in 2 mM EDTA buffer with a pH 7.5. Stable mammalian cell lines transfected with c-AMP responsive reporter genes containing either the firefly or renilla luciferase reporter proteins (CRE-firefly and CRE-ren) were generated. Firefly luciferase and/or renilla luciferase producing CHO (Chinese hamster ovary) cells are cultured in tissue culture flasks and grown to 90% confluency. Twenty-four hours before the assay, the cells are quiesced in serum-free medium containing 1 mg/ml BSA (bovine serum albumin). Immediately prior to the assay, cells are removed with HBSS/EDTA (Hanks balanced salt solution containing EDTA), centrifuged and resuspended in 10 ml phenol red-free and serum-free medium supplemented with 1 mg/ml BSA. Next, the cells are plated into a 96 well microtiter plate at 90 μl/well and returned to the incubator. After 1 hour, 10 μl of the test compound, made up in either water or phenol red-free medium, is added. The microplates then are further incubated for 4 hours. Finally, the firefly luciferase detection reagent is made up and 100 μl of this detection solution is added to each well. After 10 minutes, the microplate is counted for firefly luciferase activity. Next, to each well, 100 μl/well of 5 μM of coelenterazine in 2 mM EDTA buffer solution is added. The plate is left for 15 minutes in the dark and then counted for renilla luciferase activity. CRE-ren cells were stimulated with 10 μM forskolin, a compound which directly activates adenylcyclase to cause an increase in the level of […] cAMP. […] The assay plates were counted in a TopCount™ Luminescence Counter (Packard Instrument Company) at 15 or 160 minutes after reagent addition. […] Furthermore, renilla luminescence generated using the composition of this invention, is 10-fold brighter than the firefly luciferase generated light signal.

adenylcyclase [3] = experiment: Forskolin dose response, firefly luciferase reporter (CRE-firefly CHO cells mixed with CRE-ren cells), Example 1; assay type: cell-based, Chinese hamster ovary; conditions: 15 and 160 minutes after reagent addition; FIG. 1
Protocol: A kit for the sequential detection of firefly luciferase and renilla luciferase was prepared which consisted of a firefly luciferase assay reagent and a renilla luciferase assay reagent. The firefly luciferase reagent consisted of AMP, EDTA, firefly luciferin, ATP, DTT, phenylacetic acid and oxalic acid as originally described in U.S. Pat. No. 5,618,682. Stable mammalian cell lines transfected with c-AMP responsive reporter genes containing either the firefly or renilla luciferase reporter proteins (CRE-firefly and CRE-ren) were generated. Firefly luciferase and/or renilla luciferase producing CHO (Chinese hamster ovary) cells are cultured in tissue culture flasks and grown to 90% confluency. Twenty-four hours before the assay, the cells are quiesced in serum-free medium containing 1 mg/ml BSA (bovine serum albumin). […] After 10 minutes, the microplate is counted for firefly luciferase activity. […] The plate is left for 15 minutes in the dark and then counted for renilla luciferase activity. […] The assay plates were counted in a TopCount™ Luminescence Counter (Packard Instrument Company) at 15 or 160 minutes after reagent addition. […] Furthermore, renilla luminescence generated using the composition of this invention, is 10-fold brighter than the firefly luciferase generated light signal.

CHO cells = experiment: Compound screening, endogenous response of CHO cells (CRE/firefly/V2 and CRE/ren/beta2), Example 3; assay type: cell-based, Chinese hamster ovary; conditions: for firefly luciferase response (endogenous): firefly luciferase detection reagent; for agonist activity at these cells: CRE/firefly/V2 and CRE/ren/beta2 cells
Protocol: as §1, §2
Firefly luciferase and/or renilla luciferase producing CHO (Chinese hamster ovary) cells are cultured in tissue culture flasks and grown to 90% confluency. Twenty-four hours before the assay, the cells are quiesced in serum-free medium containing 1 mg/ml BSA (bovine serum albumin). Immediately prior to the assay, cells are removed with HBSS/EDTA (Hanks balanced salt solution containing EDTA), centrifuged and resuspended in 10 ml phenol red-free and serum-free medium supplemented with 1 mg/ml BSA. Next, the cells are plated into a 96 well microtiter plate at 90 μl/well and returned to the incubator. After 1 hour, 10 μl of the test compound, made up in either water or phenol red-free medium, is added. The microplates then are further incubated for 4 hours. Finally, the firefly luciferase detection reagent is made up and 100 μl of this detection solution is added to each well. After 10 minutes, the microplate is counted for firefly luciferase activity. Next, to each well, 100 μl/well of 5 μM of coelenterazine in 2 mM EDTA buffer solution is added. The plate is left for 15 minutes in the dark and then counted for renilla luciferase activity.
CRE/firefly/V2 and CRE/ren/beta2 cells were mixed and plated into individual wells of a black 96-well ViewPlate and a range of compounds were applied to the cells.

[4] = biological target: T1, human beta-2 adrenoceptor; experiment: beta2-adrenoceptor dose response, renilla luciferase readout after renilla detection reagent (CRE/ren/beta2 cells mixed with CRE/firefly/V2 cells), Example 2; assay type: cell-based
Protocol: as §1, §2
Firefly luciferase and/or renilla luciferase producing CHO (Chinese hamster ovary) cells are cultured in tissue culture flasks and grown to 90% confluency. Twenty-four hours before the assay, the cells are quiesced in serum-free medium containing 1 mg/ml BSA (bovine serum albumin). Immediately prior to the assay, cells are removed with HBSS/EDTA (Hanks balanced salt solution containing EDTA), centrifuged and resuspended in 10 ml phenol red-free and serum-free medium supplemented with 1 mg/ml BSA. Next, the cells are plated into a 96 well microtiter plate at 90 μl/well and returned to the incubator. After 1 hour, 10 μl of the test compound, made up in either water or phenol red-free medium, is added. The microplates then are further incubated for 4 hours. Finally, the firefly luciferase detection reagent is made up and 100 μl of this detection solution is added to each well. After 10 minutes, the microplate is counted for firefly luciferase activity. […] The plate is left for 15 minutes in the dark and then counted for renilla luciferase activity.

T1 sequence (P07550 whole entry): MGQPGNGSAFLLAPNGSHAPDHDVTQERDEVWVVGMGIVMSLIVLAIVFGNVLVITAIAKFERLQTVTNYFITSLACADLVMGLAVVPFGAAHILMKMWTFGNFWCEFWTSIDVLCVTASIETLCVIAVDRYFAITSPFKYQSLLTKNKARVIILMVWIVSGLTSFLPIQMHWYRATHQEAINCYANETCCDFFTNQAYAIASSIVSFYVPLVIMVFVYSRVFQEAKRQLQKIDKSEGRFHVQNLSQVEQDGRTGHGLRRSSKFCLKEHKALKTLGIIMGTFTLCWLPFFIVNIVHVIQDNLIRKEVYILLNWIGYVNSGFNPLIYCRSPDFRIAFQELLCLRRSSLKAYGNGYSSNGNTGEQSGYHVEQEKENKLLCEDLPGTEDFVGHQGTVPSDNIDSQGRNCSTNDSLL

Row | Compound | luminescence signal following addition of renilla luciferase detection reagent [1] | action on CHO cells (conclusion) (CHO cells) | firefly luciferase response (endogenous) (CHO cells) | luminescent signal following addition of renilla luciferase detection reagent (endogenous) (CHO cells) | agonist activity at these cells (CHO cells) | further results
1 | NC(=O)CC[C@@H]1NC(=O)[C@H](Cc2ccccc2)NC(=O)[C@H](Cc2ccc(O)cc2)NC(=O)CCSSC[C@@H](C(=O)N2CCC[C@H]2C(=O)N[C@H](CCCN=C(N)N)C(=O)NCC(N)=O)NC(=O)[C@H](CC(N)=O)NC1=O [desmopressin] | not significantly above basal | – | – | – | – | –
2 | C=C[C@@]1(C)CC(=O)[C@]2(O)[C@@]3(C)[C@@H](O)CCC(C)(C)[C@@H]3[C@H](O)[C@H](OC(C)=O)[C@@]2(C)O1 [forskolin] | – | act on CHO cells to generate an endogenous response | a firefly luciferase response was obtained | A luminescent signal was maintained | – | renilla luciferase luminometric response (adenylcyclase [2]; 15 minutes after reagent addition): 3.5×10^6; renilla luciferase luminometric response (adenylcyclase [2]; 160 minutes after reagent addition): 1.8×10^6; EC50 for forskolin stimulation of adenyl cyclase (adenylcyclase [2]; renilla response, 15 versus 160 minutes): remains similar; nature of the firefly luminescence (adenylcyclase [3]): identical at 15 and 160 minutes after reagent addition
3 | CC(C)C[C@H](NC(=O)[C@H](CCCCN)NC(=O)[C@H](CCCN=C(N)N)NC(=O)[C@H](C)NC(=O)[C@H](CO)NC(=O)[C@H](CCCCN)NC(=O)[C@H](CCCN=C(N)N)NC(=O)[C@H](C)NC(=O)CNC(=O)[C@@H](NC(=O)[C@H](Cc1ccccc1)NC(=O)CNC(=O)CNC(=O)[C@@H](N)Cc1ccccc1)[C@@H](C)O)C(=O)N[C@@H](C)C(=O)N[C@@H](CC(N)=O)C(=O)N[C@@H](CCC(N)=O)C(=O)O [nociceptin] | – | – | – | – | not agonists active at these cells | –
4 | NCCc1c[nH]c2ccc(O)cc12 [serotonin] | – | – | – | – | not agonists active at these cells | –
5 | NC(=O)CC[C@@H]1NC(=O)[C@H](Cc2ccccc2)NC(=O)[C@H](Cc2ccc(O)cc2)NC(=O)[C@@H](N)CSSC[C@@H](C(=O)N2CCC[C@H]2C(=O)N[C@@H](CCCN=C(N)N)C(=O)NCC(N)=O)NC(=O)[C@H](CC(N)=O)NC1=O [vasopressin] | not significantly above basal | – | – | – | – | stimulation of renilla luminescence ([4]; FIG. 2): did not stimulate renilla luminescence; response curve after subsequent addition of renilla detection reagent ([4]; renilla detection reagent added to the same cells): flattened
6 | thyro-calcitonin (CGNLSTCMLGTYTQDFNKFHTFPQTAIGVGAP; ends and bridges not checked; cysteine pairing not given here; UniProt P01258 85-116, looked up) [CHO cells express an endogenous calcitonin receptor] | – | act on CHO cells to generate an endogenous response | a firefly luciferase response was obtained | A luminescent signal was maintained | – | –
